Measured values from patent US20240010634A1, “PYRIMIDINYL SULFONAMIDES AS INHIBITORS OF ACK1/TNK2 TYROSINE KINASE” (H. LEE MOFFITT CANCER CENTER AND RESEARCH INSTITUTE, INC., priority 2020, published 2024).
pEC50, pIC50, pKi: −log10 of the molar value. Several values for one entry are separate records, joined by “and”; a condition that tells them apart may be missing. Equal entries are not always repeated.

Experiments:
ACK1 [1] = biological target: T1, ACK1 (Homo sapiens (Human), UniProt Q07912); assay: ACK1 IC50 (Table 1, method not described); format: biochemical
MDA-MB-231 = assay: Cell viability (MDA-MB-231); format: cell-based; settings: Homo sapiens
ACK1 [2] = biological target: T1, ACK1; assay: Reaction Biology 33P Hotspot assay; format: biochemical
UKE1 = assay: Cell viability (UKE1); format: cell-based
[3] = tested on: cell line which is dependent upon ACK1; settings: read-out: IC50, growth of a cell line dependent upon ACK1; cited from earlier work
ACK1 [4] = biological target: T1, ACK1; settings: cited from earlier work
[5] = tested on: AR phosphorylation of Tyr-267; settings: heregulin-stimulated LNCaP cells; cited from earlier work
ACK1 autophosphorylation = settings: heregulin-stimulated LNCaP cells; cited from earlier work

T1 sequence (Q07912 whole entry): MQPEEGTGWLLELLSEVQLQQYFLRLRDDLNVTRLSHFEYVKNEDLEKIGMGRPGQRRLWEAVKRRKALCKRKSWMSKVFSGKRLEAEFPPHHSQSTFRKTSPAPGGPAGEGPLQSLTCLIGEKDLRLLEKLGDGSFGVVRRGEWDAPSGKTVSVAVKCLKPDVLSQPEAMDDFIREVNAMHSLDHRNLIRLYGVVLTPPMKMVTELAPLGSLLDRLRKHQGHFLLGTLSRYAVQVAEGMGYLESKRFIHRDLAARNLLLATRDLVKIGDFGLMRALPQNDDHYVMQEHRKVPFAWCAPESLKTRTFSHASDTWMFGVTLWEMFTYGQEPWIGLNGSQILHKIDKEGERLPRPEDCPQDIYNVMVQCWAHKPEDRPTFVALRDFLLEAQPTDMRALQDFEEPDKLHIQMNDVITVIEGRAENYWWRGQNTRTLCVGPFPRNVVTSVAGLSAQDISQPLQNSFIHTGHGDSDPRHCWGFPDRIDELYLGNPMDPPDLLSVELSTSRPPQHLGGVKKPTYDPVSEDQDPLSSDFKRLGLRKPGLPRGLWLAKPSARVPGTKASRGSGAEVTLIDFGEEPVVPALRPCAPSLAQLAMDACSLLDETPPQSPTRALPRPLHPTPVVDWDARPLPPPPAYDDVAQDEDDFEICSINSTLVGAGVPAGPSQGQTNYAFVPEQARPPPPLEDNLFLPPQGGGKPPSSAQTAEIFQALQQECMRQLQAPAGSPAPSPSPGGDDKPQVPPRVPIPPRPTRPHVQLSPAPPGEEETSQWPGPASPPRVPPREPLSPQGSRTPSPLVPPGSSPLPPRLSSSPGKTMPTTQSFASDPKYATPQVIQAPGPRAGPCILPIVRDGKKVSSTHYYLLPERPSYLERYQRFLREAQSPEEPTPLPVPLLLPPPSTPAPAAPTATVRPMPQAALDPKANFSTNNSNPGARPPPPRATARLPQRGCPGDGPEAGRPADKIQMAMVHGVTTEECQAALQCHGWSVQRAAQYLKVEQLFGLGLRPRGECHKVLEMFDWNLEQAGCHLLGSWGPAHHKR

SMILES	pEC50 (MDA-MB-231)	IC50 (ACK1 [2])	pEC50 (UKE1)	also measured
COc1cc(N2CCN(C)CC2)ccc1Nc1ncc(C)c(Nc2ccc(Cl)c(NS(=O)(=O)C(C)(C)C)c2)n1 [N-(2-chloro-5-((2-((2-methoxy-4-(4-methylpiperazin-1-yl)phenyl)amino)-5-methylpyrimidin-4-yl)amino)phenyl)-2-methylpropane-2-sulfonamide]	–	–	–	pIC50 (ACK1 [1]): 7.48
COc1cc(N2CCN(C)CC2)ccc1Nc1ncc(C)c(Nc2cccc(NS(=O)(=O)C(C)(C)C)c2)n1 [N-(3-((2-((2-methoxy-4-(4-methylpiperazin-1-yl)phenyl)amino)-5-methylpyrimidin-4-yl)amino)phenyl)-2-methylpropane-2-sulfonamide]	–	21.9 nM	–	pIC50 (ACK1 [1]): 7.46
CN(C)CCOc1ccc(-c2oc3ncnc(NCC4SCCS4)c3c2-c2ccccc2)cc1 [Compound 1c]	–	–	–	pIC50 [3]: 8.30; pKi (ACK1 [4]): 9.52
COc1cc(-n2cccn2)ccc1Nc1ncc(C)c(Nc2cccc(NS(=O)(=O)C(C)(C)C)c2)n1 [N-(3-((2-((2-methoxy-4-(1H-pyrazol-1-yl)phenyl)amino)-5-methylpyrimidin-4-yl)amino)phenyl)-2-methylpropane-2-sulfonamide]	4.96	19.8 nM	< 5.00	–
Cc1nc(Nc2ncc(C(=O)Nc3c(C)cccc3Cl)s2)cc(N2CCN(CCO)CC2)n1 [Dasatinib]	–	–	–	pIC50 [5]: > 8.30; pIC50 (ACK1 autophosphorylation): > 8.30
COc1cc(Nc2ncc(C)c(Nc3cccc(NS(=O)(=O)C(C)(C)C)c3)n2)ccc1-c1cnn(C)c1 [N-(3-((2-((3-methoxy-4-(1-methyl-1H-pyrazol-4-yl)phenyl)amino)-5-methylpyrimidin-4-yl)amino)phenyl)-2-methylpropane-2-sulfonamide]	–	19 nM	–	–

The next lines start with results.

pEC50 (MDA-MB-231)	IC50 (ACK1 [2])	SMILES	pEC50 (UKE1)	also measured
6.66	14 nM	Cc1cnc(Nc2ccc(N3CCN(C)CC3)c(OC(C)C)c2)nc1Nc1ccc(Cl)c(NS(=O)(=O)C(C)(C)C)c1 [N-(2-chloro-5-((2-((3-isopropoxy-4-(4-methylpiperazin-1-yl)phenyl)amino)-5-methylpyrimidin-4-yl)amino)phenyl)-2-methylpropane-2-sulfonamide]	6.07	–
–	15 nM	CC(C)Oc1cc(Nc2ncc(Cl)c(Nc3cccc(NS(=O)(=O)C(C)(C)C)c3)n2)ccc1N1CCN(C)CC1 [N-(3-((5-chloro-2-((3-isopropoxy-4-(4-methylpiperazin-1-yl)phenyl)amino)pyrimidin-4-yl)amino)phenyl)-2-methylpropane-2-sulfonamide]	–	–
6.67	13 nM and 13.8 nM	Cc1cnc(Nc2ccc(N3CCN(C)CC3)c(OC(C)C)c2)nc1Nc1cccc(NS(=O)(=O)C(C)(C)C)c1 [N-(3-((2-((3-isopropoxy-4-(4-methylpiperazin-1-yl)phenyl)amino)-5-methylpyrimidin-4-yl)amino)phenyl)-2-methylpropane-2-sulfonamide]	6.33	–
–	18.7 nM	Cc1cnc(Nc2ccc(N3CCN(C)CC3)c(OC(C)C)c2)nc1Nc1ccc(NS(=O)(=O)C(C)(C)C)cc1 [N-(4-((2-((3-isopropoxy-4-(4-methylpiperazin-1-yl)phenyl)amino)-5-methylpyrimidin-4-yl)amino)phenyl)-2-methylpropane-2-sulfonamide]	–	–
